Reference: US20250339409A1, “USES OF PAN BET INHIBITORS” (VYNE THERAPEUTICS INC., priority 2021, published 2025)

System: imiquimod-induced psoriasis
Assay: Imiquimod-induced psoriasis (Th17 inflammation) model in mice, topical treatment once daily D7-D13: PASI, modified PASI, body weight, use of enrichment, TEWL
Type: in vivo
Parameters: key to Mean score use enrichment: 0 = no use of dental rolls to 4 = use of all 4; key to PASI Mean score values: sum of erythema, induration, peeling scores, each 0-3 (0 = none)
Settings: imiquimod-induced mice
Procedure: Thirty-six (36) female Balb/c mice are weighed and randomly divided into 9 groups (n=4) according to body weight on D1. For mice of native group 1 and tolerance groups 8 and 9, no induction of psoriasis is performed between D1 and D13. Psoriasis is induced in groups 2 to 7 by once daily topical application for 13 days (from day 1 to day 13) of 65 mg of Aldara™ cream (5.0% imiquimod) onto the shaved and epilated back of mice. Before the first treatment, a second randomization of mice of the 6 imiquimod-induced psoriasis groups is performed according to the severity of psoriasis (PASI), and also the body weight of mice. Starting on day 7 and until day 13, 100 mg of test formulations […] and 65 mg of vehicle (groups 1 and […]) are topically administered once daily for 7 consecutive days onto the shaved back skin of mice. Several measurements are taken during treatment period from day 7 to day 14: psoriasis index (PASI), body weight, use of enrichment and mortality. At the end of treatment period, TEWL is assessed, and blood and skin samples are collected. Histological analysis of skin samples is used for microscopic scoring of psoriasis and the determination of the thickness of parakeratosis and epidermis and blood analysis is used for assessing the level of proinflammatory biomarkers (cytokines assays). The effect of treatment of psoriasis induced mice with BETi formulations at the four dose levels are compared with Dermoval® cream containing 0.05% clobetasol propionate (reference) and vehicle (positive control) and also with healthy mice treated with vehicle (negative control).
PASI scoring takes into account the following 3 parameters: the presence of erythema on the skin, induration of the skin (thickening) and peeling of the skin at the area of the induction of psoriasis.
The presence of erythema on the skin at the area of induction of psoriasis with the following scoring grid: • 0=no or no more erythema on the skin, • 1=weak erythema on the skin, • 2=moderate erythema on the skin, • 3=important erythema on the skin.
The presence of induration of the skin at the area of induction of psoriasis with the following scoring grid: • 0=no or no more induration of the skin, • 1=weak induration of the skin, • 2=moderate induration of the skin, • 3=important induration of the skin.
The presence of peeling of the skin at the area of induction of psoriasis with the following scoring grid: • 0=no or no more dryness/peeling of the skin, • 1=weak dryness/peeling of the skin, • 2=moderate dryness/peeling of the skin, • 3=important dryness/peeling of the skin.
The sum of the mean scores of these 3 parameters result in the mean PASI score.
One of the issues with a steroid is that it causes skin thinning and continues to have an effect on no longer inflamed skin and the model set up and measurements above are not designed to reflect this negative effect. Therefore, a modified PASI (mPASI) is calculated in the same the manner as mean PASI score but excludes the scoring for induration (thickening of the skin).
Mice are weighed three times during the week of D1 to D7, and then daily during the week of D7 to D13, as well as on the day D14 when they are sacrificed. It should be noted that a characteristic body weight loss of mice is observed after the start of the induction of psoriasis, mainly during the first days following it. The body weight loss can reach between 10 to 15%.
For the duration of the experiment, dental rolls are used as enrichment and placed in each cage and replaced twice. Between D1 and D7, the number of dental rolls used by animals are determined twice in the morning, and are determined daily during D7 to D14, at the time of PASI or the tolerance assessment. The use of dental rolls is scored from 0=no use of dental rolls to 4=use of the 4 dental rolls. In the case where only half of a dental roll is used, a score of 0.5 is assigned. […]

Structure (SMILES): Cn1cc(-c2cccc(O)c2Oc2ccccc2)c2cc[nH]c2c1=O [BETi1]
- PASI Mean score values (D 7): 8.00
- Modified PASI Mean score values (D 7, listed as BETI1 0.01%): 5.75
- Modified PASI Mean score values (D 7, listed as BETI1 0.1%): 5.75
- Modified PASI Mean score values (D 7, listed as BETI1 1.0%): 5.50
- Mean score use enrichment (D 7, listed as BETi 0.001%): 4.00
- Mean score use enrichment (D 7, listed as BETi 0.01%): 3.50
- Mean score use enrichment (D 7, listed as BETi 0.1%): 3.00
- Modified PASI Mean score values (D 7, listed as BETi1 0.001%): 5.50
- Mean score use enrichment (D 7, listed as BETi 1.0%): 2.00
- Mean score use enrichment (D 8-D 14, listed as BETi 0.001%): 3.17
- Mean score use enrichment (D 8-D 14, listed as BETi 0.01%): 3.58
- Mean score use enrichment (D 8-D 14, listed as BETi 0.1%): 3.75
- Mean score use enrichment (D 8-D 14, listed as BETi 1.0%): 3.58
- Modified PASI Mean score values (D 8, listed as BETI1 0.1%): 6.00
- PASI Mean score values (D 8, listed as BETI1 0.1%): 8.50
- Modified PASI Mean score values (D 8, listed as BETI1 1.0%): 6.25
- PASI Mean score values (D 8, listed as BETI1 1.0%): 9.00
- Mean score use enrichment (D 8, listed as BETi 0.001%): 4.00
- Mean score use enrichment (D 8, listed as BETi 0.01%): 4.00
- Mean score use enrichment (D 8, listed as BETi 0.1%): 3.25
- Modified PASI Mean score values (D 8, listed as BETi1 0.001%): 7.00
- PASI Mean score values (D 8, listed as BETi1 0.001%): 10.00
- Modified PASI Mean score values (D 8, listed as BETi1 0.01%): 5.50
- PASI Mean score values (D 8, listed as BETi1 0.01%): 8.25
- Mean score use enrichment (D 8, listed as BETi 1.0%): 2.25
- Modified PASI Mean score values (D 9, listed as BETI1 0.1%): 4.50
- PASI Mean score values (D 9, listed as BETI1 0.1%): 7.25
- Modified PASI Mean score values (D 9, listed as BETI1 1.0%): 5.75
- PASI Mean score values (D 9, listed as BETI1 1.0%): 8.50
- Mean score use enrichment (D 9, listed as BETi 0.001%): 1.00
- Mean score use enrichment (D 9, listed as BETi 0.01%): 2.25
- Mean score use enrichment (D 9, listed as BETi 0.1%): 2.75
- Modified PASI Mean score values (D 9, listed as BETi1 0.001%): 6.25
- PASI Mean score values (D 9, listed as BETi1 0.001%): 9.25
- Modified PASI Mean score values (D 9, listed as BETi1 0.01%): 4.00
- PASI Mean score values (D 9, listed as BETi1 0.01%): 6.75
- Mean score use enrichment (D 9, listed as BETi 1.0%): 2.00
- Modified PASI Mean score values (D 10, listed as BETI1 0.1%): 2.75
- PASI Mean score values (D 10, listed as BETI1 0.1%): 4.50
- Modified PASI Mean score values (D 10, listed as BETI1 1.0%): 4.75
- PASI Mean score values (D 10, listed as BETI1 1.0%): 7.25
- Mean score use enrichment (D 10, listed as BETi 0.001%): 2.25
- Mean score use enrichment (D 10, listed as BETi 0.01%): 3.25
- Mean score use enrichment (D 10, listed as BETi 0.1%): 3.75
- Modified PASI Mean score values (D 10, listed as BETi1 0.001%): 5.50
- PASI Mean score values (D 10, listed as BETi1 0.001%): 8.50
- Modified PASI Mean score values (D 10, listed as BETi1 0.01%): 3.50
- PASI Mean score values (D 10, listed as BETi1 0.01%): 6.00
- Mean score use enrichment (D 10, listed as BETi 1.0%): 3.00
- Modified PASI Mean score values (D 11, listed as BETI1 0.1%): 1.25
- PASI Mean score values (D 11, listed as BETI1 0.1%): 2.75
- Modified PASI Mean score values (D 11, listed as BETI1 1.0%): 3.50
- PASI Mean score values (D 11, listed as BETI1 1.0%): 5.50
- Mean score use enrichment (D 11, listed as BETi 0.001%): 3.75
- Mean score use enrichment (D 11, listed as BETi 0.01%): 4.00
- Mean score use enrichment (D 11, listed as BETi 0.1%): 4.00
- Modified PASI Mean score values (D 11, listed as BETi1 0.001%): 5.50
- PASI Mean score values (D 11, listed as BETi1 0.001%): 8.00
- Mean body weights (D 11, listed as BETi1 0.01%): 17.93
- Modified PASI Mean score values (D 11, listed as BETi1 0.01%): 2.75
- PASI Mean score values (D 11, listed as BETi1 0.01%): 5.00
- Mean score use enrichment (D 11, listed as BETi 1.0%): 3.50
- Modified PASI Mean score values (D 12, listed as BETI1 0.1%): 0.50
- PASI Mean score values (D 12, listed as BETI1 0.1%): 1.00
- Modified PASI Mean score values (D 12, listed as BETI1 1.0%): 4.25
- PASI Mean score values (D 12, listed as BETI1 1.0%): 7.25
- Mean score use enrichment (D 12, listed as BETi 0.001%): 4.00
- Mean score use enrichment (D 12, listed as BETi 0.01%): 4.00
- Mean score use enrichment (D 12, listed as BETi 0.1%): 4.00
- Modified PASI Mean score values (D 12, listed as BETi1 0.001%): 4.50
- PASI Mean score values (D 12, listed as BETi1 0.001%): 6.00
- Modified PASI Mean score values (D 12, listed as BETi1 0.01%): 1.00
- PASI Mean score values (D 12, listed as BETi1 0.01%): 2.25
- Mean score use enrichment (D 12, listed as BETi 1.0%): 2.25
- Modified PASI Mean score values (D 13, listed as BETI1 0.1%): 0.50
- PASI Mean score values (D 13, listed as BETI1 0.1%): 1.00
- Modified PASI Mean score values (D 13, listed as BETI1 1.0%): 3.25
- PASI Mean score values (D 13, listed as BETI1 1.0%): 5.25
- Mean score use enrichment (D 13, listed as BETi 0.001%): 4.00
- Mean score use enrichment (D 13, listed as BETi 0.01%): 4.00
- Mean score use enrichment (D 13, listed as BETi 0.1%): 4.00
- Modified PASI Mean score values (D 13, listed as BETi1 0.001%): 4.00
- PASI Mean score values (D 13, listed as BETi1 0.001%): 5.50
- Modified PASI Mean score values (D 13, listed as BETi1 0.01%): 1.75
- PASI Mean score values (D 13, listed as BETi1 0.01%): 2.75
- Mean score use enrichment (D 13, listed as BETi 1.0%): 2.75
- Mean score use enrichment (D 14): 4.00
- Mean TEWL score values (D14, Lower back, listed as BETi1 1.0%): 30.63 g/h/m2
- Mean TEWL score values (D14, Lower back, listed as BETi10.001%): 42.11 g/h/m2
- Mean TEWL score values (D14, Lower back, listed as BETi10.01%): 57.25 g/h/m2
- Mean TEWL score values (D14, Lower back, listed as BETi10.1%): 39.27 g/h/m2
- Mean TEWL score values (D14, Mean, listed as BETi1 1.0%): 38.60 g/h/m2
- Mean TEWL score values (D14, Mean, listed as BETi10.001%): 40.35 g/h/m2
- Mean TEWL score values (D14, Mean, listed as BETi10.01%): 39.55 g/h/m2
- Mean TEWL score values (D14, Mean, listed as BETi10.1%): 27.14 g/h/m2
- Mean TEWL score values (D14, Mid back, listed as BETi1 1.0%): 40.80 g/h/m2
- Mean TEWL score values (D14, Mid back, listed as BETi10.001%): 41.26 g/h/m2
- Mean TEWL score values (D14, Mid back, listed as BETi10.01%): 34.53 g/h/m2
- Mean TEWL score values (D14, Mid back, listed as BETi10.1%): 24.04 g/h/m2
- Mean TEWL score values (D14, Upper back, listed as BETi1 1.0%): 44.36 g/h/m2
- Mean TEWL score values (D14, Upper back, listed as BETi10.001%): 37.67 g/h/m2
- Mean TEWL score values (D14, Upper back, listed as BETi10.01%): 26.87 g/h/m2
- Mean TEWL score values (D14, Upper back, listed as BETi10.1%): 18.11 g/h/m2
- Modified PASI Mean score values (D 14, listed as BETI1 0.1%): 0.50
- PASI Mean score values (D 14, listed as BETI1 0.1%): 1.25
- Modified PASI Mean score values (D 14, listed as BETI1 1.0%): 3.50
- PASI Mean score values (D 14, listed as BETI1 1.0%): 5.00
- Modified PASI Mean score values (D 14, listed as BETi1 0.001%): 3.75
- PASI Mean score values (D 14, listed as BETi1 0.001%): 5.50
- Modified PASI Mean score values (D 14, listed as BETi1 0.01%): 1.50
- PASI Mean score values (D 14, listed as BETi1 0.01%): 2.25
- clinical signs (end of treatment): substantial resolution of clinical signs
- dermal tolerance (topical 7 days): no evidence of dermal tolerance issues
- reduction in mPASI score (composite inflammation severity score) relative to vehicle control group (treatment Day 7): 94%
- Absolute Body Weight Change from day 1 to day 14, D14 − D1, individual mouse (listed as BETi1 -0.001%): 1.58
